Our source for the DC50, Kd and IC50 values is US20250115598A1 (Anaxis Pharma Pty Ltd, priority 2021, published 2025).

In one assay the target is endogenous MLKL in MDF (Mus musculus (Mouse), UniProt Q9D2Y4). The assay is described as follows: Degradation assay: endogenous MLKL in MDF (western blot). The following applies: MDF cells, 24 h incubation with compound, MLKL adjusted for loading with GAPDH, normalized to DMSO only control, read-out: Degradation of endogenous MLKL in MDF (DC50 cell-based assay). The method, then:
Degradation Assay: Screening Compounds Procedure to Evaluate the Activity of Compounds in Degrading Endogenous MLKL in Human and Mouse Cell
The mouse dermal fibroblast (MDF) cell line was seeded the day before the experiment in a 24-well plate at a cell density of […] per well in a volume of 0.5 mL per well and left to attach overnight. The human monocyte cell line (U937) was seeded on the day of the experiment in a 24-well plate at a cell density of […] per well in a volume of 0.5 mL per well.
The compound was diluted in DMSO with a starting concentration of 10 mM and titrated stepwise with a dilution of 1:5. 0.5 μL of the compound dilution was added to the appropriate well to achieve a final concentration of 10; 2; 0.4; 0.08 and 0.016 μM. A DMSO only well was included as control.
The cells were incubated for 24 h in the presence of the compound at 37° C. and 10% CO2.
After the 24 h incubation period, the medium was removed and cells washed with 0.5 mL PBS. The cells were then lysed directly in 60 μL of 1×SDS gel loading buffer.
The cell lysate was heat-denatured at […] for 10 min. 10 μL of lysate per well were run on 18-well 4-15% Criterion TGX stain free gels (BIO-RAD). The proteins were then transferred onto nitrocellulose membrane with a wet transfer protocol in the Criterion Blotter (BIO-RAD).
Membranes were blocked with 5% skim milk in TBST. Primary antibody against MLKL (clone 3H1, MABC604 Merck) was used at 1:2000 dilution in TBST with 1% BSA and left shaking over night at 4° C. After washes with TBST, the membranes were incubated with goat anti-rat IgG HRP-conjugated antibody (Southern Biotech) in 1% skim milk TBST at 1:10000 dilution for 1 h at room temperature. After TBST washes the bands were imaged on the ChemiDoc MP Imaging System (BIO-RAD) with Immobilion Western Chemiluminescent HRP Substrate Forte (Millipore). The loading control GAPDH was probed for with rabbit anti-GAPDH (CST 14C10) at 1:2000 dilution in 1% BSA TBST over night at 4° C. TBST washes were followed by incubation with goat anti-rabbit IgG HRP-conjugated antibody (Southern Biotech) in 1% skim milk TBST at 1:10000 dilution for 1 h at room temperature followed by TBST washes. The signal was detected as described above.
The band intensity was measured in the ImageLab Software (BIO-RAD) and the MLKL values adjusted for loading with GAPDH. The percentage of degradation was calculated by normalizing the compound treated values to the DMSO only control.
(In general: In western blotting, separated proteins are transferred to a membrane and probed.)

The target of a further assay is human MLKL (full length) (Homo sapiens (Human), UniProt Q8NB16). The assay is described as follows: KINOMEscan binding assay, human MLKL (full length). The following applies: hMLKL, Table 25; read-out: MLKL (KD). A digest of the protocol: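 Active-site competition binding: DNA-tagged kinase (T7 phage fusion from BL21-derived E. coli lysate, or HEK-293-expressed) captured on immobilized-ligand beads, with bound kinase in the eluate quantified by qPCR. Compounds ran as 11-point 3-fold dilutions, 1% DMSO, top 30,000 nM for most. Kd came from a Hill fit (slope −1).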
Sequence of human MLKL (full length) (Q8NB16 whole entry, the tested form may be a part): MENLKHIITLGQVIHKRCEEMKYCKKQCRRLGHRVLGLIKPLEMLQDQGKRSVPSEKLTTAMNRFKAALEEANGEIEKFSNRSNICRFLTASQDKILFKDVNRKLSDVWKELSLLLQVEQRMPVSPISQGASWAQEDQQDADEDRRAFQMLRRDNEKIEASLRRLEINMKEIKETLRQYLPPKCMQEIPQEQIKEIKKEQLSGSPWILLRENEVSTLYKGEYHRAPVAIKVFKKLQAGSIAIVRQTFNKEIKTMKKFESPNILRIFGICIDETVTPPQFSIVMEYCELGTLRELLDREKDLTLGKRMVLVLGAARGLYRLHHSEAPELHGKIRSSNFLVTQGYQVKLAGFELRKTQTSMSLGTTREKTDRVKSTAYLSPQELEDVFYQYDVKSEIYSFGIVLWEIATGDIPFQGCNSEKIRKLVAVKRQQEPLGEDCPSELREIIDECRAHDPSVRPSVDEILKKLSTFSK

Assay [1] deals with Immortalised Mouse Dermal Fibroblasts (MDFs). The assay is described as follows: Cellular assay: inhibition of TSI induced necroptosis, CellTitre-Glo viability. Particulars: Mus musculus, Fibroblast; MDF, 3 hours TSI cocktail, Table 27; read-out: Inhibition of TSI-induced necroptosis (IC50 cell-based assay) in MDF. A digest of the protocol: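 Necroptosis induced for 3 h with TSI: rhTNF 100 ng/ml, Smac mimetic 500 nM, caspase inhibitor IDN-6556 10 μM. Mouse dermal fibroblasts had received compound (36 μM top, ten three-fold steps) 30 min beforehand. ATP-based viability scaled between untreated and TSI-only wells; IC50 taken as 4-parameter curve inflection.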

Sequence of endogenous MLKL in MDF (Q9D2Y4 whole entry): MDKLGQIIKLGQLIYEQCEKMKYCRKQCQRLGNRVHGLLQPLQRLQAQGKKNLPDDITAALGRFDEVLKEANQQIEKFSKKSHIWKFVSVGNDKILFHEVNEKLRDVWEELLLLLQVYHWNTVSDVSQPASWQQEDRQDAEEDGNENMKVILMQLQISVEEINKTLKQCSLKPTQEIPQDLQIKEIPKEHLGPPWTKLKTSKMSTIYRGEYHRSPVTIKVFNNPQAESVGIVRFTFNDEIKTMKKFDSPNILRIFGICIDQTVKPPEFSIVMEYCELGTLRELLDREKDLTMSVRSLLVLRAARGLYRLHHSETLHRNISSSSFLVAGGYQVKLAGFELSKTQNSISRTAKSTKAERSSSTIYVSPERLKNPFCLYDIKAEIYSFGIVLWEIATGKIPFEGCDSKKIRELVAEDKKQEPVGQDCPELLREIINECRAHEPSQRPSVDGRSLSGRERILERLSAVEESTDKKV

A word on the DC50: it is the concentration giving 50% degradation. For orientation: Kd means the constant that tells how readily two partners part at equilibrium. For orientation: IC50 means the concentration that gives 50% inhibition. For `C[C@H](Oc1cc(-c2nn(C)c3c(-c4cnn(C5CCN(C(=O)C6CN(c7cccc8c7C(=O)N(C7CCC(=O)NC7=O)C8=O)CCO6)CC5)c4)cnc(N)c23)ccc1NS(=O)(=O)C(F)F)c1ccc(F)cc1` (stereo partly drawn) [Compound 1070, N-(4-{4-amino-7-[1-(1-{4-[2-(2,6-dioxopiperidin-3-yl)-1,3-dioxo-2,3-dihydro-1H-isoindol-4-yl]morpholine-2-carbonyl}piperidin-4-yl)-1H-pyrazol-4-yl]-1-methyl-1H-pyrazolo[4,3-c]pyridin-3-yl}-2-[(1S)-1-(4-fluorophenyl)ethoxy]phenyl)-1,1-difluoromethanesulfonamide], on endogenous MLKL in MDF, the DC50 is under 1000 nM. For the same compound, the dissociation constant Kd at human MLKL (full length) was 10 to 1000 nM. Also, the concentration for half-maximal inhibition (IC50) in assay [1] was under 1000 nM.
As to `C[C@H](Oc1cc(-c2nn(C)c3c(-c4cnn(C5CCN(C(=O)[C@H]6CC[C@@H](Nc7cccc8c7C(=O)N(C7CCC(=O)NC7=O)C8=O)CC6)CC5)c4)cnc(N)c23)ccc1NS(=O)(=O)C(F)F)c1ccc(F)cc1` (stereo partly drawn) [Compound 1071], the DC50 on endogenous MLKL in MDF is under 1000 nM. Further, the dissociation constant (Kd) at human MLKL (full length) is under 10 nM. The IC50 in assay [1] was under 1000 nM.
For the compound `C[C@H](Oc1cc(-c2nn(C)c3c(-c4cnn(C5CCN(C(=O)CCC6CCN(c7cc8c(cc7F)C(=O)N(C7CCC(=O)NC7=O)C8=O)CC6)CC5)c4)cnc(N)c23)ccc1NS(=O)(=O)C(F)F)c1ccc(F)cc1` (stereo partly drawn) [Compound 1087, N-[4-(4-amino-7-{1-[1-(3-{1-[2-(2,6-dioxopiperidin-3-yl)-6-fluoro-1,3-dioxo-2,3-dihydro-1H-isoindol-5-yl]piperidin-4-yl}propanoyl)piperidin-4-yl]-1H-pyrazol-4-yl}-1-methyl-1H-pyrazolo[4,3-c]pyridin-3-yl)-2-[(1S)-1-(4-fluorophenyl)ethoxy]phenyl]-1,1-difluoromethanesulfonamide], the half-maximal degradation concentration (DC50) on endogenous MLKL in MDF was under 1000 nM. Moreover, the dissociation constant (Kd) on human MLKL (full length) was in the range of 10 to 1000 nM. Also, in assay [1], the half-maximal inhibitory concentration (IC50) is under 1000 nM.
On to `CN[C@@H](C)C(=O)N[C@H](C(=O)N1CC(NC(=O)CCCCCCCCn2cc(-c3cnc(N)c4c(-c5ccc(NS(=O)(=O)C(F)F)c(O[C@@H](C)c6ccc(F)cc6)c5)nn(C)c34)cn2)C[C@H]1C(=O)Nc1c(F)cccc1F)C(C)(C)C` (stereo partly drawn) [Compound 1090, (2S)-4-[9-(4-{4-amino-3-[4-(difluoromethanesulfonamido)-3-[(1S)-1-(4-fluorophenyl)ethoxy]phenyl]-1-methyl-1H-pyrazolo[4,3-c]pyridin-7-yl}-1H-pyrazol-1-yl)nonanamido]-N-(2,6-difluorophenyl)-1-[(2S)-3,3-dimethyl-2-[(2S)-2-(methylamino)propanamido]butanoyl]pyrrolidine-2-carboxamide], for which the DC50 at endogenous MLKL in MDF was in the range of 1000 to 10000 nM. In addition, the equilibrium dissociation constant (Kd) at human MLKL (full length) was under 10 nM. For the same compound, the concentration for half-maximal inhibition (IC50) in assay [1] is 1000 to 10000 nM.
As to `C[C@H](Oc1cc(-c2nn(C)c3c(-c4cnn(C5CCN(C(=O)[C@H]6C[C@H](Nc7ccc8c(c7)C(=O)N(C7CCC(=O)NC7=O)C8=O)C6)CC5)c4)cnc(N)c23)ccc1NS(=O)(=O)C(F)F)c1ccc(F)cc1` (stereo partly drawn) [Compound 1094, N-{4-[4-amino-1-methyl-7-(1-{1-[(trans)-3-{[2-(2,6-dioxopiperidin-3-yl)-1,3-dioxo-2,3-dihydro-1H-isoindol-5-yl]amino}cyclobutanecarbonyl]piperidin-4-yl}-1H-pyrazol-4-yl)-1H-pyrazolo[4,3-c]pyridin-3-yl]-2-[(1S)-1-(4-fluorophenyl)ethoxy]phenyl}-1,1-difluoromethanesulfonamide], the DC50 on endogenous MLKL in MDF is under 1000 nM. On human MLKL (full length), the Kd was under 10 nM. Besides, the IC50 in assay [1] is under 1000 nM.
As for `C[C@H](Oc1cc(-c2nn(C)c3c(-c4cnn(C5CCN(C(=O)c6ccc7c(c6)CN(C6CCC(=O)NC6=O)C7=O)CC5)c4)cnc(N)c23)ccc1NS(=O)(=O)C(F)F)c1ccc(F)cc1` (stereo partly drawn) [Compound 1096, N-{4-[4-amino-7-(1-{1-[2-(2,6-dioxopiperidin-3-yl)-1-oxo-2,3-dihydro-1H-isoindole-5-carbonyl]piperidin-4-yl}-1H-pyrazol-4-yl)-1-methyl-1H-pyrazolo[4,3-c]pyridin-3-yl]-2-[(1S)-1-(4-fluorophenyl)ethoxy]phenyl}-1,1-difluoromethanesulfonamide], the DC50 on endogenous MLKL in MDF is under 1000 nM. Besides, the dissociation constant (Kd) at human MLKL (full length) is under 10 nM. Also, the half-inhibitory concentration (IC50) in assay [1] fell in the range of 1000 to 10000 nM.
Take `CCS(=O)(=O)Nc1ccc(-c2nn(C)c3c(-c4cnn(C5CCN(C(=O)[C@H]6C[C@H](Nc7cccc8c7C(=O)N(C7CCC(=O)NC7=O)C8=O)C6)CC5)c4)cnc(N)c23)cc1F` (stereo partly drawn) [Compound 1102, N-{4-[4-amino-1-methyl-7-(1-{1-[(trans)-3-{[2-(2,6-dioxopiperidin-3-yl)-1,3-dioxo-2,3-dihydro-1H-isoindol-4-yl]amino}cyclobutanecarbonyl]piperidin-4-yl}-1H-pyrazol-4-yl)-1H-pyrazolo[4,3-c]pyridin-3-yl]-2-fluorophenyl}ethane-1-sulfonamide]: on endogenous MLKL in MDF, the 50% degradation concentration (DC50) is under 1000 nM. Besides, the equilibrium dissociation constant (Kd) at human MLKL (full length) was under 10 nM. Moreover, the IC50 in assay [1] was under 1000 nM.
On to `C[C@H](Oc1cc(-c2nn(C)c3c(-c4cnn(C5CCN(C(=O)N6CCN(c7cccc8c7C(=O)N(C7CCC(=O)NC7=O)C8=O)CC6)CC5)c4)cnc(N)c23)ccc1NS(=O)(=O)C(F)F)c1ccc(F)cc1` (stereo partly drawn) [Compound 1103, N-(4-{4-amino-7-[1-(1-{4-[2-(2,6-dioxopiperidin-3-yl)-1,3-dioxo-2,3-dihydro-1H-isoindol-4-yl]piperazine-1-carbonyl}piperidin-4-yl)-1H-pyrazol-4-yl]-1-methyl-1H-pyrazolo[4,3-c]pyridin-3-yl}-2-[(1S)-1-(4-fluorophenyl)ethoxy]phenyl)-1,1-difluoromethanesulfonamide], for which, on endogenous MLKL in MDF, the DC50 is under 1000 nM. In addition, the Kd on human MLKL (full length) was under 10 nM. Moreover, the IC50 in assay [1] was under 1000 nM.
Consider `C[C@H](Oc1cc(-c2nn(C)c3c(-c4cnn(C5CCN(C(=O)OCC6CCN(c7cccc8c7C(=O)N(C7CCC(=O)NC7=O)C8=O)CC6)CC5)c4)cnc(N)c23)ccc1NS(=O)(=O)C(F)F)c1ccc(F)cc1` (stereo partly drawn) [Compound 1105, {1-[2-(2,6-dioxopiperidin-3-yl)-1,3-dioxo-2,3-dihydro-1H-isoindol-4-yl]piperidin-4-yl}methyl4-(4-{4-amino-3-[4-(difluoromethanesulfonamido)-3-[(1 S)-1-(4-fluorophenyl)ethoxy]phenyl]-1-methyl-1H-pyrazolo[4,3-c]pyridin-7-yl}-1H-pyrazol-1-yl)piperidine-1-carboxylate], for which the half-maximal degradation concentration (DC50) at endogenous MLKL in MDF is under 1000 nM. The Kd at human MLKL (full length) was in the range of 10 to 1000 nM. Also, in assay [1], the half-maximal inhibitory concentration (IC50) is under 1000 nM.
In the case of `C[C@H](Oc1cc(-c2nn(C)c3c(-c4cnn(C5CCN(C(=O)[C@H]6C[C@H](N(C)c7ccc8c(c7)C(=O)N(C7CCC(=O)NC7=O)C8=O)C6)CC5)c4)cnc(N)c23)ccc1NS(=O)(=O)C(F)F)c1ccc(F)cc1` (stereo partly drawn) [Compound 1106, N-{4-[4-amino-1-methyl-7-(1-{1-[(trans)-3-{[2-(2,6-dioxopiperidin-3-yl)-1,3-dioxo-2,3-dihydro-1H-isoindol-5-yl](methyl)amino}cyclobutanecarbonyl]piperidin-4-yl}-1H-pyrazol-4-yl)-1H-pyrazolo[4,3-c]pyridin-3-yl]-2-[(1S)-1-(4-fluorophenyl)ethoxy]phenyl}-1,1-difluoromethanesulfonamide], on endogenous MLKL in MDF, the half-maximal degradation concentration (DC50) was under 1000 nM. For the same compound, at human MLKL (full length), the equilibrium dissociation constant (Kd) is under 10 nM. Further, in assay [1], the IC50 is under 1000 nM.
